The values that follow come from US20170368082A1, “FORMULATIONS OF BRINCIDOFOVIR” (priority 2016, published 2017).

The nature of series [1]: 7-day dose range-finding study, 2-hour IV infusion (Phase 2): toxicity. The series is classed as in vivo, Sprague-Dawley CD rats. As for the experimental part: For Phase 2, Sprague-Dawley CD® rats (5/sex/group) were dosed with brincidofovir via 2-hour IV infusion with 0 [2× sodium phosphate buffer solution (400 mM, pH 8.0±0.04)], 1 or 15 mg/kg on Days 1, 4 and 7. The dose volume was 10 mL/kg/hr for all groups. At the end of the Phase 2 treatment period, all animals were euthanized and necropsied. Phase 2 satellite animals (3/sex/Group 1 and 6/sex/Group 2-3) were similarly dosed and blood samples collected on Days 1 and 7 for toxicokinetic analysis of brincidofovir and one of its metabolites, cidofovir.
For Phase 2 (DRF), the test and control articles were administered, via intravenous 2-hour IV infusion to rats on Days 1, 4, and 7.
During Phase 2, each animal received brincidofovir administrations via intravenous infusion (2-hours) on Days 1, 4 and 7. Animals were maintained on sterile saline at a rate of 0.5 mL/hour between doses. Catheters were tied off after the completion of dose administration on Day 7 (a knot was placed in the catheter and the catheter was receded under the skin) and jackets were removed.
Blood obtained via the orbital sinus (retrobulbar venous plexus) as a terminal procedure under light isoflurane anesthesia was used to analyze hematology and clinical chemistry parameters for all animals at termination of dosing. Animals were fasted overnight prior to blood collection. Animals were not allowed to recover from anesthesia after blood collection.
Blood samples (approximately 0.25 mL) were collected into tubes containing K2EDTA anticoagulant and analyzed for the following using a Siemens ADVIA 120 Hematology Analyzer: Hemoglobin concentration (HGB); Hematocrit (HCT); Erythrocyte count (RBC); Platelet count (PLT); Mean corpuscular volume (MCV); Mean corpuscular hemoglobin (MCH); Mean corpuscular hemoglobin concentration (MCHC); Red cell distribution width (RDW); Total leukocyte count (WBC); Reticulocyte count (RETIC); Differential leukocyte count (Manual differential leukocyte counts were performed for verification and absolute values were calculated if necessary); Neutrophils (ANEU); Lymphocytes (ALYM); Eosinophils (AEOS); Basophils (ABASO); Monocytes (AMONO); Large unstained cells (ALUC);
Blood samples (approximately 1 mL) were collected into tubes with no anticoagulant, allowed to clot, centrifuged to obtain serum and analyzed for the following using a Siemens ADVIA 1800 Chemistry Analyzer: Aspartate aminotransferase (AST) (Kinetic—Modified Bergmeyer); Alanine aminotransferase (ALT) (Kinetic—Modified Bergmeyer); Alkaline phosphatase (ALKP) (Kinetic—Tietz AMP Buffer); Blood urea nitrogen (BUN) (Enzymatic Roch-Ramek with Urease); Creatinine (CREAT) (Jaffe Picric Acid in Alkaline Medium); Glucose (GLU) (Glucose Hexokinase II Method); Cholesterol (CHOL) (Enzymatic esterase/oxidase Trinder Endpoint); Triglycerides (TRIG) (Fossati Three Step Enzymatic—Trinder Endpoint); Total protein (TP) (Biuret Technique); Albumin (ALB) (Bromocresol Green Method); Total bilirubin (TBILI) (Oxidation with Vandate); Sodium (NA^+) (Ion Selective Electrode); Potassium (K^+) (Ion Selective Electrode); Chloride (Cr) (Ion Selective Electrode); Calcium (Ca′) (Michaylova & Ilkova, Arsenazo III); Inorganic phosphorus (PHOS) (Phosphomolybdate—UV Method).
Complete macroscopic examinations were performed on all Phase 2 main study animals. The macroscopic examination included examination of the external surface and all orifices; the external surfaces of the brain and spinal cord; the organs and tissues of the cranial, thoracic, abdominal and pelvic cavities and neck; and the remainder of the carcass for the presence of macroscopic morphologic abnormalities. Animals were discarded after examination; no tissues were collected or preserved.

Series [2] is described as follows: Stability study I (with dextrose): accelerated stability study. The series is classed as physicochemical. As for the experimental part:
Testing of the chemical degradation was performed in an accelerated stability study setup applying heat as an accelerator/stressor. An Arrhenius analysis was carried out providing an API half-life and a degradation rate at lower temperatures. Physical stability was evaluated at the desired storage temperature (2-8° C.); a benchmark/reference condition was likewise included in the study. The setup of the study is specified below:
Accelerated stability study: 50° C., 60° C., 65° C., 70° C., 75° C.,
Accelerated stability study: initial, 2, 6, 9, 14 days,
appearance, pH, c(BCV) recovery (HPLC), purity (HPLC), and liquid particle counting (physical degradation and benchmark stability study),
The stability testing results (accelerated conditions), i.e., the changes of pH and trends of brincidofovir recovery over the course of the stability study are summarized in Table 8 and Table 9 for the formulations at 10 mg/mL and 15 mg/mL respectively.

With `CCCCCCCCCCCCCCCCOCCCOP(=O)(O)CO[C@H](CO)Cn1ccc(N)nc1=O` [Brincidofovir], the Tolerability result in series [1] (1 and 15 mg/kg/day, Days 1, 4 and 7) is listed as “well tolerated”. For the same molecule, the Clinical signs entry in series [1] (1 or 15 mg/kg/day) is “did not result in any brincidofovir-related clinical signs”. For the same molecule, the “Decrease in red cell mass vs controls (to)” value in series [1] (end of 7-day dosing phase) is given as −4.2%. In addition, the “Change in reticulocytes vs controls” value in series [1] (females, 15 mg/kg) is recorded as −30%; in series [1] (males, 15 mg/kg, Days 1, 4, 7), −33%. Moreover, the “Change in urea (BUN) vs controls” value in series [1] (females, 15 mg/kg) is reported as “+29%”. Moreover, the “Change in total calcium vs controls” value in series [1] (females, ≧1 mg/kg) is given as “+4.9%”; in series [1] (males, 15 mg/kg) it was “+3.8%”. Besides, the “Change in MCHC vs controls” value in series [1] (males, 15 mg/kg) was “+2.1%”. In addition, the figures for the “Degradation of brincidofovir over two weeks” value in series [2] (50 °C) and in series [2] (75 °C) were 16% and 22%, respectively. The Impurities entry in series [2] (75 °C station, both starting concentrations) is recorded as “up to 16%”.
